Reference: EP0525360B1, “Novel phenylacetamide derivatives and processes for the preparation thereof” (KOREA RESEARCH INSTITUTE OF CHEMICAL TECHNOLOGY, priority 1991, dated 1993)
Structures can show the parent of a compound that is named as a salt. Where two headings read alike, the source gives them in different places.

Experiments:
[1] = tested on: Male albino rats(120-170g) of the Charles River Sprague-Dawley strain; assay: Randall-Selitto test (yeast induced hyperalgesia); type: in vivo
Method: Randall-Selitto Test was carried out by following the method described in Arch. Int. Pharmacodyn.
Male albino rats(120-170g) of the Charles River Sprague-Dawley strain were used. Inflammation was produced by the injection of 0.1mℓ of a 20% suspension of Brewer's yeast into the plantar surface of the rat's hind foot.
The pain threshold was measured as the pressure in mmHg required to induce the desired response(a sharp audible squeak and/or struggle) when the pressure was applied to the foot. Air pressure from an air line was admitted through a needle valve to a 20mℓ glass syringe and to a pressure gauge which was connected by a T-tube. The syringe was mounted with the plunger downward to which was connected a short bullet-shaped Teflon peg. The pressure was applied to the foot of the rat at the rate of 10 mmHg per second. Drug was given 2 hours after the yeast injection. Two hours after the drug administration, threshold response was determined.
The analgesic activity was determined in terms of the percentage of inhibition of response: Inhibition(%) =(Threshold of the treated group - Threshold of the control group)/(Threshold of the control group)x 100 [formula]

mice [2] = assay: Tail-flick test (radiant heat); type: in vivo
Method: Radiant heat was applied using a beam of high-intensity light focused on a tail spot. The response time, defined as the interval between the onset of the stimulus and the tail flick, was measured electronically(to the nearest 0.1 second). The beam intensity was set at a level giving a mean control reaction time of 3.8±0.4 seconds. […] The percentage of inhibition was determined by the following equation: Inhibition(%) =(Reaction time of the treated group - Reaction time of the control group)/(Reaction time of the control group)x 100 [formula]

[3] = tested on: Rats(Sprague-Dawley, female); assay: Anti-inflammatory test (carrageenin paw edema); type: in vivo; settings: Rattus norvegicus, sc
Method: Rats(Sprague-Dawley, female) weighing 100 to 120g were used. Twenty minutes after the test drug was administered(s. c.), carrageenin was injected(0.1mℓ of 1% solution, s. c.) in the plantar surface of the right hind paw.
The percentage of inhibition was determined by the following equation: Inhibition(%) =(Volume of the carrageenin treated foot - Volume of the control foot)/(Volume of the contol foot)x 100 [formula]

mice [4] = assay: Hot-plate test; type: in vivo; settings: p. o.
Method: Mice were placed on an aluminum plate maintained at 55± 0.5°C by a thermo-regulator(Harvard). A glass cylinder, 15cm in height and 15cm in diameter, served to confine the mice to the heated plate. Blowing of the fore paws was used as the end-point for determination of response latency(measured to the neatest 0.1 second).

[5] = tested on: Rats(Sprague-Dawley, female); assay: Local anti-inflammatory test (transdermal, carrageenin paw edema); type: in vivo; settings: for Double Dose(24 hr), percentage of inhibition: transdermal double dose (second application 7 hours later), edema measured 24 hours later; for Single Dose(1 hr), percentage of inhibition: transdermal single dose, edema measured 1 hour later
Method: Rats(Sprague-Dawley, female) weighing 100 to 120g were used. 20 minutes after the test drug was administered transdermally (another application 7 hours later for double dose experiment), carrageenin was injected(0.1ml of 1% solution, s. c.) into the plantar surface of the right hind paw. The volume of the edema was measured with a volumeter either 1 hour later for […] dose experiment or 24 hours later for double dose experiment; and the percentage of inhibition was measured by the same equation as used in Anti-inflammatory Test.

[6] = Use Examples: administration of compositions to human subjects; type: in vivo
Method: One tablet was administered orally to a patient(weight: 67kg) in need of analgesia two times daily to successfully provide the effect of general analgesia.
The compound of Example 5 was dissolved in sesame oil with the aid of sonication and was packaged in soft gelatin capsules using the common methods known in the art.
The above ingredients were mixed to produce a syrup which was packaged under a sterile condition in 6 oz. bottles. One teaspoon of this formulation was administrated to a 70kg adult, reducing inflammation and producing analgesia.
The compound of Example 1 was dissolved in a solution containing the other ingredients.

acute toxicity test = settings: mouse, in vivo, po, per os, 5 weeks old, observed for 14 days
Rats(Sprague-Dawley) = assay: Tail-pinch test in rats with hyperalgesia induced by Freund's adjuvant; type: in vivo
Method: Rats(Sprague-Dawley) weighing 120g to 170g were used. Desiccated Mycobacterium butyricum(Difco Laboratories, Detroit, MI) was ground in a mortar, suspended in liquid paraffin, sterilized in an autoclave, and injected(0.5mg in 0.1mℓ, s.c.) in the distal region of the tail through a 1-inch 21-gauge needle. […] The hypersensitivity of the tail was examined as follows: the animal was held comfortably in one hand and gentle pressure was applied with the fingers of the opposite hand to the injected area. This gentle squeeze or "tail pinch" elicited a "squeak" from the animal. Five such stimuli were given at 4-second intervals. If the animal emitted no more than one squeak in five trials, it was recorded as having analgesia and given a rating of 1. […] The analgesic activity was determined by the following equation: Analgesic activity =(Total rating)/(Tested aminal number)x 100 [formula] The compound of Example 1, administered two hours before tail-pinch testing perorally, caused a dose related inhibition of adjuvant induced hyperalgesia, as shown in Table 6.

[7] = tested on: Salmonella typhimurium TA98; assay: mutagenicity test (Maron and Ames); type: cell-based; settings: 3.2, 16, 80 and 400µg/plate
Method: (§1) The numbers of mutated colonies were not increased at concentrations of 3.2, 16, 80 and 400µg/plate for the test compound.

[8] = tested on: Salmonella typhimurium TA 100; assay: mutagenicity test (Maron and Ames); type: cell-based; settings: 3.2, 16, 80 and 400µg/plate
Method: as §1

KTC-ICR mice [9] = assay: acetic acid induced writhing test; type: in vivo; settings: Mus musculus; oral; 0.9% acetic acid i.p. 60 minutes later; writhings during 10 minutes; mice 20 to 25g; Examples 1 to 32
Method: (§2) The KTC-ICR mice derived from Charles River Breeding Laboratory in the United States and provided by Experimental Animal Laboratory of Korea Research Institute of Chemical Technology were used as test animals. […] They were tested after having been adjusted to the testing environment for a week. Food and water were given freely; and illumination was maintained on a 12-hour cycle.
(§3) Experiments were performed in two ways: that is, the acetic acid induced writhing test and the phenyl-1,4-benzoquinone(PBQ) induced writhing test.
Solutions for the acetic acid induced writhing test were prepared by dissolving one of the end products prepared in Examples […] in a saline solution containing 1% by weight of Tween 80 to have a concentration of 5mg/mℓ and diluting it serially with the saline solution. The test solutions were administered orally in a dose of 0.3mℓ per 30g of body weight, using the 5 ICR mice for each test. 60 minutes later, 0.9% acetic acid solution was administered intraperitoneally in a dose of 0.1mℓ per 30g of body weight. 3 minutes thereafter, the number of writhings generated during a period of 10 minutes due to the administration of acetic acid was measured. For comparison purpose, initially, saline solution alone was administered orally to the control group. 60 minutes thereafter, 0.9% acetic acid solution was administered intraperitoneally to the control group.
(§4) The number of writhings suffered by the test group was compared with that of the control group; and the analgesic effect was measured in terms of the percentage of inhibition of writhing(I. W.). I. W. (%) =(A - B)/(A)x 100 [formula] A : the number of writhings suffered by the control group, B : the number of writhings suffered by the test group.
(§5) These ED50 values for the test compounds are shown in the last column of Table 1.

KTC-ICR mice [10] = assay: phenyl-1,4-benzoquinone(PBQ) induced writhing test; type: in vivo; settings: Mus musculus, po; writhing test; inducer (acetic acid or PBQ) not stated for this reference
Method: as §2, §3
Alternatively, solutions for the PBQ induced writhing test were prepared by dissolving one of the products synthesized in Examples 33 to 46 in a mixture of Tween 80, alcohol and distilled water (1:5:94); and administered orally to the 5 ICR mice for each test in a dose of 0.3mℓ per 30g of body weight. 60 minutes later, 0.02% PBQ solution was administered intraperitoneally in a dose of 0.1mℓ per 30g of body weight of the test animals. 5 minutes thereafter, at the temperature of 40°C, the number of writhings occurred during a period of 5 minutes due to the PBQ solution administered was measured. For comparison, only the mixture of Tween 80, alcohol and distilled water was administered orally to the control group; and, after 60 minutes, the PBQ solution was administered intraperitoneally to the control group in the same manner as mentioned above.
as §4, §5

test animals = assay: Behavior analysis (side-effect or toxicity scores); type: in vivo; design: key to Sedation / Dyspnoea / Vasodilation / Convulsion / Salivation / Urination: behavior score; higher number = greater side effects; settings: behavior score; for Convulsion / Salivation / Urination: normal value 0; for Dyspnoea / Ptosis / Sedation / Vasodilation: normal value 4
Excerpt: In order to monitor a harmful side-effect or toxicity of the compounds having the formula(I), various behavioral changes in the test animals were observed. […] The higher the number is, the greater the side effects are.

[11] = 5 ICR female mice, read-out: LD50(female)
[12] = 5 ICR male mice, read-out: LD50(male)
[13] = dose 5 mg/Kg, 7 rats, Example 1 perorally two hours before testing
[14] = s. c., twenty minutes before carrageenin, edema volume 3 hours later, read-out: ED50

## CC(=O)Oc1ccccc1C(=O)O [Aspirin]
[1]; dose 100 mg/Kg s. c., 10 rats, pain threshold vs yeast-treated saline control
  Inhibition(%): 80.1%
Mice [2]; p. o., dose 100 mg/Kg
  Inhibition(%): 0%
[3]; 3 h
  ED50: 109 mg/kg

## COc1cc(CC(=O)NCCCc2ccc(C)c(C)c2)ccc1OCCN [Example 1, N-{3-(3,4-dimethylphenyl)propyl}-4-(2-aminoethoxy)-3-methoxyphenylacetamide]
Mice [4]; dose 2.5 mg/Kg
  Inhibition(%): 28.6%
Mice [4]; dose 5.0 mg/Kg
  Inhibition(%): 48.9%
Mice [4]; dose 10.0 mg/Kg
  Inhibition(%): 97.0%
[1]; dose 5 mg/Kg p. o., 5 rats
  Inhibition(%): 247.4%
[5]
  Double Dose(24 hr), percentage of inhibition: 32%
  Single Dose(1 hr), percentage of inhibition: 66%
[6]; Use Example 5 liquid (4g in glycerol/water), 0.4mℓ on 80cm^2 of the forearm, 60kg male adult
  local analgesia after topical application: local analgesia which lasted for two days
[6]; Use Example 5 liquid, 0.4mℓ on 80cm^2 of the forearm, 60kg male adult
  skin irritation after topical application: Little or no skin irritation was observed
Acute toxicity test; [11]
  LD50 at 336 h: 364 mg/kg
Acute toxicity test; [12]
  LD50 at 336 h: 224 mg/kg
Mice [2]; p. o., dose 1.25 mg/Kg
  Inhibition(%): 10%
Mice [2]; p. o., dose 2.5 mg/Kg
  Inhibition(%): 60%
Mice [2]; p. o., dose 5.0 mg/Kg
  Inhibition(%): 80%
Mice [2]; p. o., dose 7.5 mg/Kg
  Inhibition(%): 90%
Mice [2]; s. c., dose 0.5 mg/Kg
  Inhibition(%): 50%
Mice [2]; s. c., dose 1.0 mg/Kg
  Inhibition(%): 70%
Rats(Sprague-Dawley); [13]
  Analgesic activity(%): 45.9%
Rats(Sprague-Dawley); dose 10 mg/Kg, 6 rats, perorally two hours before testing
  Analgesic activity(%): 66.7%
[3]; [14]
  ED50: 4 mg/kg
[7]
  numbers of mutated colonies: not increased
[8]
  numbers of mutated colonies: not increased
KTC-ICR mice [9]
  ED50: 0.08 mg/kg

## COc1cc(CC(=O)NCCCc2ccc(C)c(C)c2)ccc1OCCN [Example 1-HCl]
[1]; dose 1.5 mg/Kg s. c., 8 rats
  Inhibition(%): 248.3%

## COc1cc(CC(=O)NCCCc2cccc(C)c2)ccc1OCCN [Example 5]
[6]; Use Example 2 soft gelatin capsules in sesame oil, two capsules, each 27mg of the composition, 63Kg person
  analgesic and anti-inflammatory effect in a human subject: producing the effects of analgesia and reducing inflammation
Acute toxicity test; [11]
  LD50 at 336 h: 125 mg/kg
Acute toxicity test; [12]
  LD50 at 336 h: 125 mg/kg
[3]; [14]
  ED50: 16.9 mg/kg
KTC-ICR mice [9]
  ED50: 0.07 mg/kg

## Cc1ccc(CCCNC(=O)Cc2ccc(OCCN)c(F)c2)cc1 [Example 11]
Acute toxicity test; [11]
  LD50 at 336 h: 322 mg/kg
Acute toxicity test; [12]
  LD50 at 336 h: 500 mg/kg
KTC-ICR mice [9]
  ED50: 0.01 mg/kg

## Cc1cc(C)cc(CCCNC(=O)Cc2ccc(OCCN)c(F)c2)c1 [Example 15]
Acute toxicity test; [11]
  LD50 at 336 h: > 2000 mg/kg
Acute toxicity test; [12]
  LD50 at 336 h: > 2000 mg/kg
KTC-ICR mice [9]
  ED50: 0.02 mg/kg

## CC(C(=O)O)c1cccc(C(=O)c2ccccc2)c1 (stereo not shown) [Ketoprofen]
[3]; 3 h
  ED50: 7.2 mg/kg

## CN1CC[C@]23c4c5ccc(O)c4O[C@H]2[C@@H](O)C=C[C@H]3[C@H]1C5 [Morphine]
[1]; rat, in vivo, 3 mg/kg
  Inhibition(%): 391.7%

## CCCCCCCC/C=C\CCCCCCCC(=O)NCc1ccc(OCCN)c(OC)c1 [NE-21610, reference compound]
Mice [2]; p. o., dose 200 mg/Kg
  Inhibition(%): 50%
KTC-ICR mice [10]
  ED50: > 300 mg/kg
Test animals; dose 10mg/Kg
  Convulsion: 0
  Salivation: 0
  Urination: 0
  Dyspnoea: 4
  Ptosis: 4
  Sedation: 4
  Vasodilation: 4
Test animals; dose 25mg/Kg
  Convulsion: 0
  Salivation: 0
  Urination: 0
  Dyspnoea: 4
  Ptosis: 4
  Sedation: 4
  Vasodilation: 4
Test animals; dose 50mg/Kg
  Convulsion: 0
  Salivation: 0
  Urination: 0
  Dyspnoea: 4
  Ptosis: 5
  Sedation: 5
  Vasodilation: 4
Test animals; dose 100mg/Kg
  Convulsion: 2
  Salivation: 0
  Urination: 0
  Dyspnoea: 6
  Ptosis: 7
  Sedation: 7
  Vasodilation: 4

## COc1ccc2cc([C@H](C)C(=O)O)ccc2c1 [Naproxen, reference compound]
[5]
  Double Dose(24 hr), percentage of inhibition: 25%
  Single Dose(1 hr), percentage of inhibition: 54%
Rats(Sprague-Dawley); [13]
  Analgesic activity(%): 28.6%
[3]; [14]
  ED50: 43 mg/kg
